The experiment addresses T1, 3-keto-steroid reductase/17-beta-hydroxysteroid dehydrogenase 7 (Homo sapiens) (UniProt P56937).
T1 sequence (whole entry): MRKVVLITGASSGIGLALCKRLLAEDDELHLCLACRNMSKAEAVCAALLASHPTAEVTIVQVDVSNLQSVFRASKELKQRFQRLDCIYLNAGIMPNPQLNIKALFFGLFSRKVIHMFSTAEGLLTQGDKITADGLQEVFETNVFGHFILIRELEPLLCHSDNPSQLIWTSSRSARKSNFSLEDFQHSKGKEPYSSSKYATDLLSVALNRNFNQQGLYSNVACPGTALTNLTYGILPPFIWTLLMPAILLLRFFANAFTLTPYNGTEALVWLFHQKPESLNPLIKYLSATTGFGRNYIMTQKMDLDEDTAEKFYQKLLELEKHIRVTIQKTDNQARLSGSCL
Conditions: HEK293, at 0.3 µM.

The values below come from ChEMBL document CHEMBL1154295, “Potent and selective steroidal inhibitors of 17beta-hydroxysteroid dehydrogenase type 7, an enzyme that catalyzes the reduction of the key hormones estrone and dihydrotestosterone” (J Med Chem, 2009).

Description: Inhibition of human 17beta-HSD7 expressed in HEK293 cells assessed as inhibition of reduction of [14C]estrone into [14C]estradiol at 0.3 uM after 7 hrs

A word on the inhibition: it is the relative decrease from the control value, in per cent. For the molecule `CCCCCCCCCCCCN(C(=O)c1ccc(Cl)cc1)[C@H]1CC[C@H]2[C@@H]3CC[C@H]4N(C)C(=O)CC[C@]4(C)[C@H]3CC[C@]12C`, the inhibition is 40%.

`CCCCCCCCCCN(C(=O)c1c(F)c(F)c(F)c(F)c1F)[C@H]1CC[C@H]2[C@@H]3CC[C@H]4N(C)C(=O)CC[C@]4(C)[C@H]3CC[C@]12C` yielded an inhibition of 28%.

Turning to `CCCCCCCN(C(=O)c1cc(F)ccc1F)[C@H]1CC[C@H]2[C@@H]3CC[C@H]4N(C)C(=O)CC[C@]4(C)[C@H]3CC[C@]12C`, the inhibition stood at 59%.

`CCCCCCCCCCN(C(=O)c1ccc(C(C)(C)C)cc1)[C@H]1CC[C@H]2[C@@H]3CC[C@H]4N(C)C(=O)CC[C@]4(C)[C@H]3CC[C@]12C`: the inhibition was determined as 4%.

As to `CCCCCCCN(C(=O)c1ccc(OC)c(C(F)(F)F)c1)[C@H]1CC[C@H]2[C@@H]3CC[C@H]4N(C)C(=O)CC[C@]4(C)[C@H]3CC[C@]12C`, the inhibition is 59%.

For the molecule `CCCCCCCCCCN(C(=O)c1ccccc1Cl)[C@H]1CC[C@H]2[C@@H]3CC[C@H]4N(C)C(=O)CC[C@]4(C)[C@H]3CC[C@]12C`, the inhibition worked out at 37%.

Take `CCCCCCCN(C(=O)c1ccccc1Cl)[C@H]1CC[C@H]2[C@@H]3CC[C@H]4N(C)C(=O)CC[C@]4(C)[C@H]3CC[C@]12C`: the inhibition was 37%.

`CCCCCCCCCCCCN(C(=O)c1ccccc1Cl)[C@H]1CC[C@H]2[C@@H]3CC[C@H]4N(C)C(=O)CC[C@]4(C)[C@H]3CC[C@]12C`: the inhibition came to 46%.

`CCCCCCCCCCCCN(C(=O)c1ccc(F)cc1)[C@H]1CC[C@H]2[C@@H]3CC[C@H]4N(C)C(=O)CC[C@]4(C)[C@H]3CC[C@]12C`: the inhibition was found to be 47%.

`CCCCCCCCCCN(C(=O)c1c(F)cccc1C(F)(F)F)[C@H]1CC[C@H]2[C@@H]3CC[C@H]4N(C)C(=O)CC[C@]4(C)[C@H]3CC[C@]12C` showed an inhibition of 19%.

`CCCCCCCN(C(=O)C1CCCCC1)[C@H]1CC[C@H]2[C@@H]3CC[C@H]4N(C)C(=O)CC[C@]4(C)[C@H]3CC[C@]12C` came in with an inhibition of 0%.

`CCCCCCCCCCCCN(C(=O)c1cccc(CCl)c1)[C@H]1CC[C@H]2[C@@H]3CC[C@H]4N(C)C(=O)CC[C@]4(C)[C@H]3CC[C@]12C`: the inhibition came to 45%.

Turning to `CCCCCCCCCCN(C(=O)c1ccc(CCCCCCC)cc1)[C@H]1CC[C@H]2[C@@H]3CC[C@H]4N(C)C(=O)CC[C@]4(C)[C@H]3CC[C@]12C`, the inhibition was 11%.

With `CCCCCCCCCCCCN(C(=O)c1ccc(Br)cc1)[C@H]1CC[C@H]2[C@@H]3CC[C@H]4N(C)C(=O)CC[C@]4(C)[C@H]3CC[C@]12C`, the inhibition amounted to 52%.

`CCCCCCCCCCN(C(=O)c1cc(F)cc(F)c1)[C@H]1CC[C@H]2[C@@H]3CC[C@H]4N(C)C(=O)CC[C@]4(C)[C@H]3CC[C@]12C`: the inhibition came out at 38%.

`CCCCCCCN(C(=O)c1cccc(CCl)c1)[C@H]1CC[C@H]2[C@@H]3CC[C@H]4N(C)C(=O)CC[C@]4(C)[C@H]3CC[C@]12C` had an inhibition of 24%.

For `CCCCCCCN(C(=O)c1ccc(I)cc1)[C@H]1CC[C@H]2[C@@H]3CC[C@H]4N(C)C(=O)CC[C@]4(C)[C@H]3CC[C@]12C`, the inhibition came out at 60%.

For `CCCCCCCCCCCCN(C(=O)c1ccc(C#N)cc1)[C@H]1CC[C@H]2[C@@H]3CC[C@H]4N(C)C(=O)CC[C@]4(C)[C@H]3CC[C@]12C`, the inhibition came out at 51%.

Regarding `CCCCCCCCCCN(C(=O)c1cccc(CCl)c1)[C@H]1CC[C@H]2[C@@H]3CC[C@H]4N(C)C(=O)CC[C@]4(C)[C@H]3CC[C@]12C`, the inhibition worked out at 30%.

As for `CCCCCCCN(C(=O)c1ccc(CCl)cc1)[C@H]1CC[C@H]2[C@@H]3CC[C@H]4N(C)C(=O)CC[C@]4(C)[C@H]3CC[C@]12C`, the inhibition was 50%.

Turning to `CCCCCCCN(C(=O)c1ccc(C#N)cc1)[C@H]1CC[C@H]2[C@@H]3CC[C@H]4N(C)C(=O)CC[C@]4(C)[C@H]3CC[C@]12C`, the inhibition worked out at 56%.

Consider `CCCCCCCCCCN(C(=O)c1ccc(CCl)cc1)[C@H]1CC[C@H]2[C@@H]3CC[C@H]4N(C)C(=O)CC[C@]4(C)[C@H]3CC[C@]12C`, for which the inhibition came out at 37%.

With `CCCCCCCN(CC1CCCCC1)[C@H]1CC[C@H]2[C@@H]3CC[C@H]4N(C)C(=O)CC[C@]4(C)[C@H]3CC[C@]12C`, the inhibition was determined as 45%.

In turn, `CCCCCCCCCCCCN(C(=O)c1c(Cl)cccc1Cl)[C@H]1CC[C@H]2[C@@H]3CC[C@H]4N(C)C(=O)CC[C@]4(C)[C@H]3CC[C@]12C` registered an inhibition of 18%.

Take `CCCCCCCCCCCCN(C(=O)c1ccc(CCl)cc1)[C@H]1CC[C@H]2[C@@H]3CC[C@H]4N(C)C(=O)CC[C@]4(C)[C@H]3CC[C@]12C`: the inhibition worked out at 33%.

`CCCCCCCN(C(=O)c1c(Cl)cccc1Cl)[C@H]1CC[C@H]2[C@@H]3CC[C@H]4N(C)C(=O)CC[C@]4(C)[C@H]3CC[C@]12C`: the inhibition came out at 28%.

For the molecule `CCCCCCCN(Cc1ccccc1)[C@H]1CC[C@H]2[C@@H]3CC[C@H]4N(C)C(=O)CC[C@]4(C)[C@H]3CC[C@]12C`, the inhibition was 69%.

Take `CCCCCCCc1ccc(C(=O)N(CCCCCCC)[C@H]2CC[C@H]3[C@@H]4CC[C@H]5N(C)C(=O)CC[C@]5(C)[C@H]4CC[C@]23C)cc1`: the inhibition was found to be 24%.

Molecule `CCCCCN(C(=O)c1ccc(Br)cc1)[C@H]1CC[C@H]2[C@@H]3CC[C@H]4N(C)C(=O)CC[C@]4(C)[C@H]3CC[C@]12C` came in with an inhibition of 63%.

Turning to `CCCCCCCN(C(=O)c1ccc(Cl)cc1)[C@H]1CC[C@H]2[C@@H]3CC[C@H]4N(C)C(=O)CC[C@]4(C)[C@H]3CC[C@]12C`, the inhibition is 65%.

`CCCCCCCCCCN(C(=O)c1c(Cl)cccc1Cl)[C@H]1CC[C@H]2[C@@H]3CC[C@H]4N(C)C(=O)CC[C@]4(C)[C@H]3CC[C@]12C`: the inhibition was 36%.

Consider `CCCCCCCCCCN(C(=O)c1ccc(I)cc1)[C@H]1CC[C@H]2[C@@H]3CC[C@H]4N(C)C(=O)CC[C@]4(C)[C@H]3CC[C@]12C`, for which the inhibition worked out at 39%.

In turn, `CCCCCCCCCCCCN(C(=O)c1ccc(OC)c(C(F)(F)F)c1)[C@H]1CC[C@H]2[C@@H]3CC[C@H]4N(C)C(=O)CC[C@]4(C)[C@H]3CC[C@]12C` came in with an inhibition of 51%.

`CCCCCCCCCCN(C(=O)c1ccc(Cl)cc1)[C@H]1CC[C@H]2[C@@H]3CC[C@H]4N(C)C(=O)CC[C@]4(C)[C@H]3CC[C@]12C`: the inhibition was 58%.

For the molecule `CCCCCCCCCCN(C(=O)c1cc(F)ccc1F)[C@H]1CC[C@H]2[C@@H]3CC[C@H]4N(C)C(=O)CC[C@]4(C)[C@H]3CC[C@]12C`, the inhibition was found to be 56%.

The molecule `CCCCCCCCCCN(C(=O)c1ccc(OC)c(C(F)(F)F)c1)[C@H]1CC[C@H]2[C@@H]3CC[C@H]4N(C)C(=O)CC[C@]4(C)[C@H]3CC[C@]12C` yielded an inhibition of 46%.

`CCCCCCCCCCN(C(=O)c1c(F)cccc1F)[C@H]1CC[C@H]2[C@@H]3CC[C@H]4N(C)C(=O)CC[C@]4(C)[C@H]3CC[C@]12C`: the inhibition amounted to 77%.

Molecule `CCCCCCCCCCN(C(=O)c1ccc(C#N)cc1)[C@H]1CC[C@H]2[C@@H]3CC[C@H]4N(C)C(=O)CC[C@]4(C)[C@H]3CC[C@]12C` came in with an inhibition of 49%.

Molecule `CCCCCCCCCCN(C(=O)c1ccc(Br)cc1)[C@H]1CC[C@H]2[C@@H]3CC[C@H]4N(C)C(=O)CC[C@]4(C)[C@H]3CC[C@]12C` showed an inhibition of 52%.

Turning to `CCCCCCCN(C(=O)c1cc(F)cc(F)c1)[C@H]1CC[C@H]2[C@@H]3CC[C@H]4N(C)C(=O)CC[C@]4(C)[C@H]3CC[C@]12C`, the inhibition was 56%.

`CCCCCCCN(C(=O)c1ccc(C(C)(C)C)cc1)[C@H]1CC[C@H]2[C@@H]3CC[C@H]4N(C)C(=O)CC[C@]4(C)[C@H]3CC[C@]12C` returned an inhibition of 29%.
